# Measured values reported in article PMC5007443, “TNIK inhibition abrogates colorectal cancer stemness” (Nature Communications, 2016).
# pIC50: −log10 of the molar value.
# Legend:
# [1] = target: KDR (Homo sapiens, UniProt P35968); experiment: Kinase selectivity profiling, Kinase insert domain receptor; assay type: biochemical; conditions: read-out: Percentage inhibition of KDR
# Experimental: (§1) The selectivity of compounds against a panel of 50 human protein kinases was assessed using a non-radiometric assay.
# [2] = system: HCT116 cells; experiment: Immunoblotting of CSC, mesenchymal and embryonal stem cell markers in HCT116 cells; assay type: cell-based, human; conditions: HCT116, 3 μM, 48 or 72 h
# Experimental: Protein samples were fractionated by SDS–PAGE and blotted onto Immobilon-P membranes (Millipore) as described previously. After incubation with the primary antibodies (listed in Supplementary Table 4) at 4 °C overnight, the blots were detected with the relevant horseradish peroxidase-conjugated anti-mouse or anti-rabbit IgG antibody (Cell Signaling Technology) and Western lighting ECL Pro (PerkinElmer). Signals were visualized with the LAS-4010 system (GE Healthcare). Uncropped versions of the blots in Figs 2e and 3f are shown in Supplementary Fig. 15.
# [3] = target: IKKβ (Homo sapiens, UniProt O14920); experiment: Kinase selectivity profiling, I-kappa-B kinase-β; assay type: biochemical; conditions: read-out: Percentage inhibition of IKKβ
# Experimental: as §1
# [4] = system: DLD-1 cells; experiment: In vivo tumorigenicity of pretreated DLD-1 cells in NOD/ShiJic-scid mice; design: species or system mouse; conditions: DLD-1, short-term in vitro treatment
# Experimental: (§2) After washing off the compounds, 10,000, 1,000, 100 or 10 viable cells in culture medium containing 50% Matrigel (BD Biosciences) were injected subcutaneously into the flanks of NOD/ShiJic-scid Jcl (6-week-old male) mice. The number of mice that developed tumours was counted, and the frequency of cells with tumour-forming capability was calculated using the ELDA software.
# [5] = system: patient-derived colorectal cancer spheroids #6; experiment: Limiting dilution analysis of sphere reformation, spheroids #6; assay type: cell-based, human; conditions: spheroids #6, 3-day Treatment
# Experimental: Spheroids were gently dissociated into single cells with the use of StemPro Accutase (Thermo Fisher Scientific), and 1,000, 100, 10 or 1 viable cells were seeded into each well of a 96-well U-bottom PrimeSurface plate (Supplementary Figs 10b and 12). Experiments were performed in triplicate and repeated at least two times.
# [6] = target: TYRO3 (Homo sapiens, UniProt Q06418); experiment: Kinase selectivity profiling, Tyro3 receptor tyrosine kinase; assay type: biochemical; conditions: read-out: Percentage inhibition of TYRO3
# Experimental: as §1
# [7] = system: HCT116 cells; experiment: In vivo tumorigenicity of pretreated HCT116 cells in NOD/ShiJic-scid mice; design: species or system mouse; conditions: HCT116, short-term in vitro treatment
# Experimental: as §2
# [8] = system: HCT116 cells; experiment: Soft-agar colony-formation assay; assay type: cell-based; conditions: Homo sapiens, HCT-116, 336 h; HCT116, 14 days
# Experimental: One milliliter of 0.33% agar (Lonza) in culture medium containing 1.5 × 10^4 cells was plated onto 1 ml of solidified base agar (0.5%) in each well of six-well clusters. The top agar layer was covered with culture medium containing serially diluted compounds. The medium was replaced every three days. Cell number was determined colorimetrically at 450–650 nm using the Cell Count Reagent SF (Nacalai Tesque). IC50 values were obtained by fitting a four-parameter dose–response curve to normalized data using GraphPad Prism version 5 (GraphPad software; Fig. 3b). Experiments were performed in triplicate and repeated at least two times.
# [9] = system: HCT116 cells; experiment: Cell cycle analysis by flow cytometry; assay type: cell-based, human; conditions: HCT116, 3 μM
# Experimental: Cells were dissociated with Accutase, fixed with 70% EtOH at −20 °C, stained with Guava Cell Cycle reagent (Merck-Millipore) in accordance with the manufacturer's instructions, and analysed using a Guava easy Cyte HT flow cytometer (Merck-Millipore). Cell doublets were eliminated by doublet discrimination gating. Data were analyzed using FLOWJO version 10 software (Treestar; Fig. 3e). Experiments were performed in triplicate and repeated at least two times.
# [10] = target: PIM1 (Homo sapiens, UniProt P11309); experiment: Kinase selectivity profiling, Pim-1 oncogene; assay type: biochemical; conditions: read-out: Percentage inhibition of PIM1
# Experimental: as §1
# [11] = target: ABL (Homo sapiens, UniProt P00519); experiment: Kinase selectivity profiling, c-Abl oncogene 1; assay type: biochemical; conditions: read-out: Percentage inhibition of ABL
# Experimental: as §1
# [12] = target: p38α (Homo sapiens, UniProt Q16539); experiment: Kinase selectivity profiling, Mitogen-activated protein kinase 14; assay type: biochemical; conditions: read-out: Percentage inhibition of p38α
# Experimental: as §1
# [13] = system: DLD-1 cells; experiment: Limiting dilution analysis of sphere formation, DLD-1; assay type: cell-based, human
# Experimental: One million HCT116 and DLD-1 cells were seeded onto 60-mm plates and treated with vehicle (DMSO) or compounds (0.1, 0.3 or 1.0 μM) for either 3 or 4 days. After washing off the compounds, the cells were dissociated to single cells in serum-free DMEM/F12 medium (Thermo Fisher Scientific) containing B27 (Thermo Fisher Scientific), 20 ng ml^−1 epidermal growth factor (EGF; Thermo Fisher Scientific), 10 ng ml^−1 basic fibroblast factor (bFGF; Thermo Fisher Scientific), 5 μg ml^−1 insulin (Thermo Fisher Scientific), 0.4% bovine serum albumin (Sigma-Aldrich) and 2 mM L-glutamine (Thermo Fisher Scientific). One hundred, 10 or 1 viable (determined by trypan-blue dye exclusion) cells were seeded into each well of a 96-well U-bottom PrimeSurface plate (Sumitomo Bakelite). Ten days later, the number of wells showing sphere formation was counted. The frequency of sphere-forming cells was calculated using ELDA software (http://bioinf.wehi.edu.au/software/elda/index.html) provided by the Walter and Eliza Hall Institute (Fig. 5c; Supplementary Table 2). Experiments were performed in triplicate and repeated at least two times.
# PIM1, sequence (P11309 whole entry): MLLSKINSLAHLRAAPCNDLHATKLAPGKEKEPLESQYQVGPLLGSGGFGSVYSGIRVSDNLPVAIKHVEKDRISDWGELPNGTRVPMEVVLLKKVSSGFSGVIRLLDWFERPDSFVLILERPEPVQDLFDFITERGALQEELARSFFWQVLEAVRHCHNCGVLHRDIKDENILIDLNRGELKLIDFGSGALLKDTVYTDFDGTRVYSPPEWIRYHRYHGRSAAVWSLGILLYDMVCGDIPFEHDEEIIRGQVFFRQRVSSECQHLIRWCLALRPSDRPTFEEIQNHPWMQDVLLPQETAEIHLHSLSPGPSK
# KDR, sequence (P35968 20-1356): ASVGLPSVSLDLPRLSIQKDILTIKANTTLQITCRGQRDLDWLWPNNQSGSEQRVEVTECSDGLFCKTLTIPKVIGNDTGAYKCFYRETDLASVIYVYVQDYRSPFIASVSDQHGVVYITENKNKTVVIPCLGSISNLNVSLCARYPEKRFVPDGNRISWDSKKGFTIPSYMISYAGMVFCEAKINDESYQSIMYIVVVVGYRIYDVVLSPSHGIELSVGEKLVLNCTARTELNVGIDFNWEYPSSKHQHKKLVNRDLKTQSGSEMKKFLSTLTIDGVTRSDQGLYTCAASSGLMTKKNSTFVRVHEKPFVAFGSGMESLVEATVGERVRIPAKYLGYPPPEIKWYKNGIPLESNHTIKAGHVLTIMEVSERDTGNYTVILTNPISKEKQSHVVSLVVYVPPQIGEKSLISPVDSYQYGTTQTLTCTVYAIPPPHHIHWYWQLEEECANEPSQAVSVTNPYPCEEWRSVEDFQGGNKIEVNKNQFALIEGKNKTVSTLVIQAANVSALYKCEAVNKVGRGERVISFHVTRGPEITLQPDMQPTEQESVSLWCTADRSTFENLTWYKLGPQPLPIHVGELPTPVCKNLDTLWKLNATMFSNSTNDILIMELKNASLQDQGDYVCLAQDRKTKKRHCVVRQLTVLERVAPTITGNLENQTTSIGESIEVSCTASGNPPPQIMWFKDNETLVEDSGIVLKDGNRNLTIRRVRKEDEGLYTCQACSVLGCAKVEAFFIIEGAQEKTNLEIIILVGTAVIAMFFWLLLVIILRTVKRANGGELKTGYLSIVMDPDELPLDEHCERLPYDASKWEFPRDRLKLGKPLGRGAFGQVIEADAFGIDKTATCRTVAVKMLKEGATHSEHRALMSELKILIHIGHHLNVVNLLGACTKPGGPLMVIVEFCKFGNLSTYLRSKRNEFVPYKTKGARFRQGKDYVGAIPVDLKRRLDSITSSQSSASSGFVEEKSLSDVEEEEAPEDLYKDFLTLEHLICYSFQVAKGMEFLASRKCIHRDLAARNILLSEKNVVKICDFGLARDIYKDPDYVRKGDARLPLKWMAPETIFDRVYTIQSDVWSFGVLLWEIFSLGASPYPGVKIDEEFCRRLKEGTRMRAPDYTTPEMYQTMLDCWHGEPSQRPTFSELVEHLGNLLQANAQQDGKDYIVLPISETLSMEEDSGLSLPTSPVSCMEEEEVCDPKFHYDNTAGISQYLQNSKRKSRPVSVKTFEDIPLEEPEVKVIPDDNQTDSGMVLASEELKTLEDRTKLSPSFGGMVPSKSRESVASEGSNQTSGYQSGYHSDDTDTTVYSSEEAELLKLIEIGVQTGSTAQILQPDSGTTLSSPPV
# p38α, sequence (Q16539 whole entry): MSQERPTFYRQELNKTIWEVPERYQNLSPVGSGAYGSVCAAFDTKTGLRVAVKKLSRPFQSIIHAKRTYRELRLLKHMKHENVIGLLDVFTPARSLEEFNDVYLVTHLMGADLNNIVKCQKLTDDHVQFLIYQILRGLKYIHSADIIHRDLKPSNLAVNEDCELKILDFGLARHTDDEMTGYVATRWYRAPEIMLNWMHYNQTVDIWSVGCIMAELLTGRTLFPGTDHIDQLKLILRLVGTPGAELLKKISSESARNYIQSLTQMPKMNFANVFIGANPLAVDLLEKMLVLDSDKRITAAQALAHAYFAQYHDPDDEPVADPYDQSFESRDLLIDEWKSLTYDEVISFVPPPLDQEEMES
# TYRO3, sequence (Q06418 41-890): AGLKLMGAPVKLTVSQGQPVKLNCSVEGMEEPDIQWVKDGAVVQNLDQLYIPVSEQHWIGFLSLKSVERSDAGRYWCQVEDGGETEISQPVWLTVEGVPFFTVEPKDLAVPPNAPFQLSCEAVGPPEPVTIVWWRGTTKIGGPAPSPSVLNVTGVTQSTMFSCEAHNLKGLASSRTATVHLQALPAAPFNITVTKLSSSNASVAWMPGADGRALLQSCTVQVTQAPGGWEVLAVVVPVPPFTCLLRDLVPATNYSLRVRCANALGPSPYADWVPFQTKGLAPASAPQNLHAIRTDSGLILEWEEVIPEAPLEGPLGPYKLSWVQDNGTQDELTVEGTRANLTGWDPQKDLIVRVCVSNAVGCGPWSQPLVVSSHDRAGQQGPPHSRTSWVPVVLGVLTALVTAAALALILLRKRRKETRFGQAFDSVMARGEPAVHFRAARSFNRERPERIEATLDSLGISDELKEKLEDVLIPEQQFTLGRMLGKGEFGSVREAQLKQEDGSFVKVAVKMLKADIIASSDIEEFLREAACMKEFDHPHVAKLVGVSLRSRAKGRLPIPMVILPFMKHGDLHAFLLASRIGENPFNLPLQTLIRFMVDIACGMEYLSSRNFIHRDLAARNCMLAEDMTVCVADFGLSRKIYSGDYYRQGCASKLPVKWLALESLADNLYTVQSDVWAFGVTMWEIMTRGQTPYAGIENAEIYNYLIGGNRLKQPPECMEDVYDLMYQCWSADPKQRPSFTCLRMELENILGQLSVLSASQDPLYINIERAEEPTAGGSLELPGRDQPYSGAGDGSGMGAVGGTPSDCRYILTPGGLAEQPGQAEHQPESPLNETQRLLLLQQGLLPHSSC
# IKKβ, sequence (O14920 whole entry): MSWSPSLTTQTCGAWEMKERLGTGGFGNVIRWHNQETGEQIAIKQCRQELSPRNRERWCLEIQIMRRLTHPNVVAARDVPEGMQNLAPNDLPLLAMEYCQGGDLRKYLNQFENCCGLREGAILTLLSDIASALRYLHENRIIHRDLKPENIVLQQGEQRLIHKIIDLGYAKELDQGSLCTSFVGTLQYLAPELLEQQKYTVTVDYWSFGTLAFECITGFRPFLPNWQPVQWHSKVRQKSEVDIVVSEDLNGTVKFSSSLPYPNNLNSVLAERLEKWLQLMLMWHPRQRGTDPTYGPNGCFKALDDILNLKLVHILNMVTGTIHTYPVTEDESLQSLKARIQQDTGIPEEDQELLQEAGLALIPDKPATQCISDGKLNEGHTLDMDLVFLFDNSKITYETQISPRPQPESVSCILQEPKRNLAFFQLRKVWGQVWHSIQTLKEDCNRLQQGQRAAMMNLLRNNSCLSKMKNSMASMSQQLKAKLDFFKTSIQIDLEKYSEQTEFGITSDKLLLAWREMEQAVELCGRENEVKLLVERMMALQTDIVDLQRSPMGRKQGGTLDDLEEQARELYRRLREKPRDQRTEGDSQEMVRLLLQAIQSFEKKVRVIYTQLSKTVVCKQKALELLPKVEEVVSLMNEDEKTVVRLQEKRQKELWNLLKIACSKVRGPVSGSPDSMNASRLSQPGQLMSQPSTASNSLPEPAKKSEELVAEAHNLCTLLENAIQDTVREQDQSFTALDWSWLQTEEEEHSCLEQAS
# ABL, sequence (P00519 whole entry): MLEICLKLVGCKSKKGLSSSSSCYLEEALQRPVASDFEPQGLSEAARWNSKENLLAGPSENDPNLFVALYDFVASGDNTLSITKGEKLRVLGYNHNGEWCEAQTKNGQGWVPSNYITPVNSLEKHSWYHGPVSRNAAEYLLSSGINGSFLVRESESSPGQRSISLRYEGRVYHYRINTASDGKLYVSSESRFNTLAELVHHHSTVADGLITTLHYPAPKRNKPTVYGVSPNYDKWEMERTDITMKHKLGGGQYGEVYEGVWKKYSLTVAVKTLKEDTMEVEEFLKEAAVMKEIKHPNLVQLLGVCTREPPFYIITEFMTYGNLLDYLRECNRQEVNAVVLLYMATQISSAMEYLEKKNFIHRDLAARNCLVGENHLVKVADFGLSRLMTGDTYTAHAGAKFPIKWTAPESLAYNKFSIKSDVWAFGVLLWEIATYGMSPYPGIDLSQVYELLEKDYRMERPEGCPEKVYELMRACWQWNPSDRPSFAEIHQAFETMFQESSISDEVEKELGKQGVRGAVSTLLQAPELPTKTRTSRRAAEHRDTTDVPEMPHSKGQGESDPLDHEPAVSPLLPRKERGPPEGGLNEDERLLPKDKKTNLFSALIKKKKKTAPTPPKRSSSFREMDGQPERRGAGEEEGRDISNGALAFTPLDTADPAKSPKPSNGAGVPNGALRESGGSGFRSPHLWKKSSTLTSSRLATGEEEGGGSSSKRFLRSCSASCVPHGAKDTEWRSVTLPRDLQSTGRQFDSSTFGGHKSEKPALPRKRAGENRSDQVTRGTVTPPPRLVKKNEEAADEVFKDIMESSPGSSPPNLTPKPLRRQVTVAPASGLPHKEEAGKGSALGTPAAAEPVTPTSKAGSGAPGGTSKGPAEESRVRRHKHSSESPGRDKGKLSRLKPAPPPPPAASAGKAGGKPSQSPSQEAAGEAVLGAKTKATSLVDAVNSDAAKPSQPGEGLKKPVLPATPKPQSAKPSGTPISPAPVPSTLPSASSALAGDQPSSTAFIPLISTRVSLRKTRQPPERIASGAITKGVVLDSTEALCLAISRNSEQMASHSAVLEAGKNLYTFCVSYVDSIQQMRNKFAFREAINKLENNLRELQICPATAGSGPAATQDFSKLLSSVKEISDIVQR
compound,measurement,setting,value
O[C@H]1CC[C@H](Oc2cccc3cnc(Nc4ccc5nc[nH]c5c4)nc23)CC1 [NCB-0970],inhibition at 0.1 µM,[1],43.7%
same,"downregulation of expression of putative colorectal CSC markers CD44, CD133, ALDH1",[2],not
same,inhibition at 0.1 µM,[3],7.9%
same,tumour formation,[4],not
same,Sphere-containing wells/total wells,"[5]; 0.1 μM, 1 cell per well",8/96
same,Sphere-containing wells/total wells,"[5]; 0.1 μM, 10 cells per well",83/96
same,Sphere-containing wells/total wells,"[5]; 0.1 μM, 100 cells per well",96/96
same,Sphere-containing wells/total wells,"[5]; 0.1 μM, 1000 cells per well",96/96
same,Sphere-containing wells/total wells,"[5]; 0.3 μM, 1 cell per well",10/96
same,Sphere-containing wells/total wells,"[5]; 0.3 μM, 10 cells per well",87/96
same,Sphere-containing wells/total wells,"[5]; 0.3 μM, 100 cells per well",96/96
same,Sphere-containing wells/total wells,"[5]; 0.3 μM, 1000 cells per well",96/96
same,"Sphere-initiating cell frequency, Estimate",[5]; 1.0 μM,1/15
same,Sphere-containing wells/total wells,"[5]; 1.0 μM, 1 cell per well",1/96
same,Sphere-containing wells/total wells,"[5]; 1.0 μM, 10 cells per well",50/96
same,Sphere-containing wells/total wells,"[5]; 1.0 μM, 100 cells per well",96/96
same,Sphere-containing wells/total wells,"[5]; 1.0 μM, 1000 cells per well",96/96
same,inhibition at 0.1 µM,[6],23.9%
same,tumour formation,[7],not
same,pIC50,[8],5.41
same,>4N (%),[9]; 24 h,9.1%
same,G0/G1 (%),[9]; 24 h,24.5%
same,G2/M (%),[9]; 24 h,35.8%
same,S (%),[9]; 24 h,10.7%
same,SubG1 (%),[9]; 24 h,20%
same,>4N (%),[9]; 48 h,8.5%
same,G0/G1 (%),[9]; 48 h,21%
same,G2/M (%),[9]; 48 h,40.3%
same,S (%),[9]; 48 h,10.7%
same,SubG1 (%),[9]; 48 h,19.5%
same,inhibition at 0.1 µM,[10],-5%
same,inhibition at 0.1 µM,[11],3.9%
same,inhibition at 0.1 µM,[12],-2.8%
same,Sphere-containing wells/total wells,"[13]; DLD-1, 3-day treatment, 0.1 μM, 1 cell per well",40/96
same,Sphere-containing wells/total wells,"[13]; DLD-1, 3-day treatment, 0.1 μM, 10 cells per well",96/96
same,Sphere-containing wells/total wells,"[13]; DLD-1, 3-day treatment, 0.1 μM, 100 cells per well",96/96
same,Sphere-containing wells/total wells,"[13]; DLD-1, 3-day treatment, 0.3 μM, 1 cell per well",51/96
same,Sphere-containing wells/total wells,"[13]; DLD-1, 3-day treatment, 0.3 μM, 10 cells per well",95/96
same,Sphere-containing wells/total wells,"[13]; DLD-1, 3-day treatment, 0.3 μM, 100 cells per well",96/96
same,Sphere-containing wells/total wells,"[13]; DLD-1, 3-day treatment, 1.0 μM, 1 cell per well",16/96
same,Sphere-containing wells/total wells,"[13]; DLD-1, 3-day treatment, 1.0 μM, 10 cells per well",75/96
same,Sphere-containing wells/total wells,"[13]; DLD-1, 3-day treatment, 1.0 μM, 100 cells per well",95/96
same,Sphere-containing wells/total wells,"[13]; DLD-1, 4-day treatment, 0.1 μM, 1 cell per well",55/96
same,Sphere-containing wells/total wells,"[13]; DLD-1, 4-day treatment, 0.1 μM, 10 cells per well",95/96
same,Sphere-containing wells/total wells,"[13]; DLD-1, 4-day treatment, 0.1 μM, 100 cells per well",96/96
same,Sphere-containing wells/total wells,"[13]; DLD-1, 4-day treatment, 0.3 μM, 1 cell per well",65/96
same,Sphere-containing wells/total wells,"[13]; DLD-1, 4-day treatment, 0.3 μM, 10 cells per well",94/96
same,Sphere-containing wells/total wells,"[13]; DLD-1, 4-day treatment, 0.3 μM, 100 cells per well",96/96
same,Sphere-containing wells/total wells,"[13]; DLD-1, 4-day treatment, 1.0 μM, 1 cell per well",45/96
same,Sphere-containing wells/total wells,"[13]; DLD-1, 4-day treatment, 1.0 μM, 10 cells per well",95/96
same,Sphere-containing wells/total wells,"[13]; DLD-1, 4-day treatment, 1.0 μM, 100 cells per well",96/96
